Data reported in patent publication US20240270821A1, “GIP/GLP1/GCG TRI-RECEPTOR AGONISTS AND USES THEREOF” (priority 2023, published 2024).
Read-outs that look alike come from different tables or passages of the source. Marks after values point to notes of the source that are not given here. Starred links: 1 amine or outer side, 2 acyl side, 3 side chain; linkers in the order of their positions; H or OH if unused. Non-standard residues stand in square brackets, D forms with d. Groups on a side chain read outwards from the residue. No end group written: not given here. *: point of attachment. C20 diacid = O=C(O)CCCCCCCCCCCCCCCCCCC(=O)*; C18 diacid = O=C(O)CCCCCCCCCCCCCCCCC(=O)*; Phe(4-CN) = N#Cc1ccc(C[C@H](N)C(=O)O)cc1; αMePhe(2-F) = C[C@](N)(Cc1ccccc1F)C(=O)O; γGlu = O=C(O)[C@H](CCC(=O)[*:2])N[*:1]; εLys = N[C@@H](CCCCN[*:1])C(=O)[*:2]; αMe4Pal = C[C@](N)(Cc1ccncc1)C(=O)O; αMeY = C[C@](N)(Cc1ccc(O)cc1)C(=O)O; 4Pal = N[C@@H](Cc1ccncc1)C(=O)O; αMeL = CC(C)C[C@](C)(N)C(=O)O; αMeS = C[C@](N)(CO)C(=O)O; Orn = NCCC[C@H](N)C(=O)O; AEEA = NCCOCCOCC(=O)O; Aib = CC(C)(N)C(=O)O

Legend:
hGLP-1R [1] = molecular target: T1, hGLP-1R (Homo sapiens, UniProt P43220); test: Functional cAMP activation in the presence of 0.1% casein (no HSA); assay type: cell-based;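 further: intracellular cAMP rise after 30 min at 37 °C read by HTRF, normalized between buffer only (0%) and maximal control ligand (100%), four-parameter variable-slope fit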
Target sequence in this assay (P43220 24-463): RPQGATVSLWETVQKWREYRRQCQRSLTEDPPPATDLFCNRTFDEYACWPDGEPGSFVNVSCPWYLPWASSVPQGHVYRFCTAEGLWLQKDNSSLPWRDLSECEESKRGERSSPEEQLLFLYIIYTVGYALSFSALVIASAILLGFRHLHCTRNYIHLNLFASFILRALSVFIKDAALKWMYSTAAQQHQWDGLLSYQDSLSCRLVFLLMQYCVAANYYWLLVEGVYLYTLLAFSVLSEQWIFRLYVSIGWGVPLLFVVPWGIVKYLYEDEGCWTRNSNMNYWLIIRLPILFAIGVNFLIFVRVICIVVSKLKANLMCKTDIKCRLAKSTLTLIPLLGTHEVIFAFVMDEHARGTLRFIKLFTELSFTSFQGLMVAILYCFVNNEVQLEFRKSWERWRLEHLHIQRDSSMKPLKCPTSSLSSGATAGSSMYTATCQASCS

hGIPR [2] = molecular target: T2, hGIPR (Homo sapiens, UniProt P48546); test: Functional cAMP activity in the presence of 1% HSA; assay type: cell-based
T2 sequence (P48546 22-466): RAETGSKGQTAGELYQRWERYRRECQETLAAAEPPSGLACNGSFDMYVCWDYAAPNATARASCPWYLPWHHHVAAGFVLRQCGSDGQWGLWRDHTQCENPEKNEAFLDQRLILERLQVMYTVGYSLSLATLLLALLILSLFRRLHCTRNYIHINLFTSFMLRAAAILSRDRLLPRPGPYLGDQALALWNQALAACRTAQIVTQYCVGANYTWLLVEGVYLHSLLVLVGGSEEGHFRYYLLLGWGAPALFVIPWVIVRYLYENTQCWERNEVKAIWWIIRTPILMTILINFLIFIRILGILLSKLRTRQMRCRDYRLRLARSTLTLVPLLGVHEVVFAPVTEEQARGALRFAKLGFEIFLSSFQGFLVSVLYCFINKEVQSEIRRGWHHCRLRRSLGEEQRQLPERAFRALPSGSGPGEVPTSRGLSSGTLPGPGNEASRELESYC

hGIPR [3] = molecular target: T2, hGIPR; test: Functional cAMP activation in the presence of 0.1% casein (no HSA); assay type: cell-based;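 further: intracellular cAMP rise after 30 min at 37 °C read by HTRF against a standard curve, scaled between buffer alone (0%) and top control ligand concentration (100%), four-parameter fit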
[4] = In vivo ileum (distal loop) absorption assay; conditions: Sprague Dawley, rat, 300 μM peptide with 100 mM C10, rats; for level at time molar at 10 min: read-out: 10 min IL plasma concentration; for level at time molar at 20 min: read-out: 20 min IL plasma concentration; for level at time molar at 40 min: read-out: 40 min IL plasma concentration; for level at time molar at 1 h: 60 min, read-out: 60 min IL plasma concentration
Method: Ileum absorption of the exemplary polypeptides in the presence of C10 in rats is evaluated using a previously reported intestinal closed loop model (Lawrence, S. A.; Blankenship, R.; Brown, […].; Ellis, B.; Thangaraju, A.; Datta-Mannan, A., Influence of FcRn binding properties on the gastrointestinal absorption and exposure profile of Fc molecules. […] Overnight fasted Sprague Dawley rats with body weights between 250-280 grams are anesthetized by inhaling isoflurane and placed on a warm surgical table maintained by circulating water at 37 °C. The surgical area is shaved, and the skin is disinfected with betadine scrub followed by 70% isopropyl alcohol. An approximately 2 cm ventral midline incision is made to expose intestine, and 10 cm of an ileum segment is tied off. The peptides are formulated with 100 mM C10 in Tris buffer (pH 8.0, 50 mM) at a final concentration of 300 μM. The formulations are administered directly into the ileum loop. […] Blood samples are collected into tubes containing […] (5%) and processed to plasma for subsequent analyses. Peptide concentrations in the plasma are determined by LC/MS.

hGLP-1R [5] = molecular target: T1, hGLP-1R; test: Functional cAMP activity in the presence of 1% HSA; assay type: cell-based
Target sequence in this assay (P43220 24-463): as the sequence (P43220 24-463) above

hGcgR = hGcgR (Homo sapiens, UniProt P47871); test: Functional cAMP activation in the presence of 0.1% casein (no HSA); assay type: cell-based;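 further: intracellular cAMP rise after 30 min at 37 °C, read by HTRF against a cAMP standard curve, scaled from buffer only (0%) to maximal control ligand response (100%)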
human GLP1-R = human GLP1-R (Homo sapiens, UniProt P43220); test: GLP1-R internalization assay in HEK293 cells; assay type: cell-based; conditions: for Internalization % TOP: normalized to maximum concentration of GLP-1 (100%)
human GcgR = human GcgR (Homo sapiens, UniProt P47871); test: Functional cAMP activity in the presence of 1% HSA; assay type: cell-based
hGLP-1R [6] = molecular target: T1, hGLP-1R; test: GLP-1R CHO cell β-arrestin recruitment assay; assay type: cell-based; design: host or cells: CHO-K1 (PathHunter, assay-ready frozen cells); conditions: for EC50: CHO-K1 PathHunter, β-arrestin-2, 0.1% casein, read-out: hGLP1R β-arrestin Rel EC50; for % Stimulation Max: normalized to GLP-1(7-36) as maximum control;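 on all read-outs here: luminescence read after 90 min peptide exposure at 37 °C and a further 60 min with detection reagent at room temperature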
Target sequence in this assay (P43220 24-463): as the sequence (P43220 24-463) above
Target sequence in this assay (P32121 whole entry partner): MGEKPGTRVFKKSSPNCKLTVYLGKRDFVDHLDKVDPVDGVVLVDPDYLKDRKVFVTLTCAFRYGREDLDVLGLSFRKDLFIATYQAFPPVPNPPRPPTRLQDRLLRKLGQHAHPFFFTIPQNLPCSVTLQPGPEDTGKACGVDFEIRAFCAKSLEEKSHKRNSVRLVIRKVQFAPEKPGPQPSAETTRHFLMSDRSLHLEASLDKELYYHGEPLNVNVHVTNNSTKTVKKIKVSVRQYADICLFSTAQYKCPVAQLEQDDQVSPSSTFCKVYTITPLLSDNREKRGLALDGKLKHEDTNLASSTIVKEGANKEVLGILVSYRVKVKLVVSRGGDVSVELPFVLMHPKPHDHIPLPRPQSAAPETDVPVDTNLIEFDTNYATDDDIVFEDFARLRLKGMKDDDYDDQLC
Method: CHO-KI cells expressing Pro-Link-tagged Human GLP-1R and enzyme-acceptor-tagged β-arrestin-2 may be obtained from DiscoveRx and prepared as assay-ready frozen cells. Test peptides are solubilized in DMSO and serial dilutions are performed using the Echo acoustic dispenser (LabCyte). Assay media is the PathHunter Cell Assay Buffer (DiscoveRx) containing 0.1% w/v hydrolyzed Casein (Sigma). […] Plates are incubated for 90 minutes in a 37′C/5% C02 incubator and 10 μl of PathHunter detection reagent is added (DiscoveRx) and plates are incubated at room temperature for 60 minutes. Luminescence signal is measured. Peptide concentration-response curves fit to a four-parameter logistic model to calculate potency as an EC50.

[7] = Pharmacokinetics in male Sprague Dawley rats, single subcutaneous administration; conditions: rat, in vivo, sc, 10 nmol/kg
Method: (§1) The pharmacokinetics of the exemplary analogs are evaluated following a single subcutaneous (SC) administration of 10 nmol/kg (dissolved in 40 mM Tris pH8) or single 4 mg/kg (mixed with 250 mM sodium decanoate/C10 in 40 mM Tris pH8) intrajejunal (IJ) administration to male Sprague Dawley rats. Blood samples are collected over 96 hours following SC administration and 72 hours following IJ dosing, and resulting individual plasma concentrations are used to calculate pharmacokinetic parameters. Peptide plasma (K3 EDTA) concentrations are determined using a qualified LC/MS method that measured the intact mass of the analog. Each peptide and an analog as an internal standard are extracted from rat plasma using methanol. A High Resolution Instrument was used for LC/MS detection.

[8] = Body weight in diet-induced obese C57BL/6 mice; assay type: in vivo; conditions: percent of starting weight, DIO mice, mean ± SEM n=5
Method in brief: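 Daily weighing gave body weight as percent of starting value (mean±SEM, n=5) over 9-16 days of SC dosing, once daily or every 3 days, shortly before lights-off. Animals were weight-randomized male C57BL/6 DIO mice, 41-50 g, fed ad libitum on a calorie-rich diet.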

in vivo = test: in vivo; design: species or system Sprague Dawley rats; conditions: male, Sprague Dawley, rat, 4 mg/kg
Method: as §1

[9] = in the presence of 0.1% casein (no HSA), geometric mean, read-out: Relative cAMP EC50, hGLP-1R
[10] = in the presence of 0.1% casein (no HSA), geometric mean, read-out: Relative cAMP EC50, hGIPR
[11] = read-out: cAMP Rel EC50, hGLP-1R
[12] = in the presence of 0.1% casein (no HSA), geometric mean, read-out: Relative cAMP EC50, hGcgR
[13] = HEK293 cells expressing SNAP-GLP-1R, read-out: GLP1R Internalization EC50

human GcgR, sequence (P47871 26-477): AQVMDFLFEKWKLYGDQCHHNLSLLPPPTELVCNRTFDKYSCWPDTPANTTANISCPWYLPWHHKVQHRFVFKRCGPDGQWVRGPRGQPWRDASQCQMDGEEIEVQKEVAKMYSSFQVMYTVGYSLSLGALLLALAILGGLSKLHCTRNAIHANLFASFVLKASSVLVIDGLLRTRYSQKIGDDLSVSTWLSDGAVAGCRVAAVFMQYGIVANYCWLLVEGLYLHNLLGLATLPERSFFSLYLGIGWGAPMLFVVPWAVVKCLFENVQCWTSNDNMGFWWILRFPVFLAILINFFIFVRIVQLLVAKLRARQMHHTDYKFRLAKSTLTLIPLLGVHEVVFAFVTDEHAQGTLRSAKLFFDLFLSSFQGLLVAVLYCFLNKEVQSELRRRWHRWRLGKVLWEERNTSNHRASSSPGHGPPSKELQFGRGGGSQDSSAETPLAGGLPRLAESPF
hGcgR, sequence (P47871 26-477): as above
human GLP1-R, sequence (P43220 24-463): as the sequence (P43220 24-463) above

Row | Molecule | Internalization % TOP (human GLP1-R) [%] | EC50 (hGLP-1R [1]; [9]) [nM] | EC50 (hGIPR [2]; read-out: cAMP Rel EC50, hGIPR) [nM] | EC50 (hGIPR [3]; [10]) [nM] | EC50 (hGLP-1R [6]) [nM] | % Stimulation Max (hGLP-1R [6]) [%] | CL/F [7] [mL/min/kg] | half-life [7] [h] | EC50 (hGLP-1R [5]; [11]) [nM] | EC50 (hGcgR; [12]) [nM] | EC50 (human GLP1-R; [13]) [nM] | EC50 (human GcgR; read-out: cAMP Rel EC50, hGcgR) [nM] | Body weight (%) ([8]; 10 nmol/kg SC Q3D, 14 days) | also measured
1 | CC[C@H](C)[C@H](NC(=O)[C@H](Cc1ccccc1)NC(=O)[C@H](C)NC(=O)C(C)(C)NC(=O)[C@H](CCC(N)=O)NC(=O)[C@H](C)NC(=O)[C@H](CCCCNC(=O)COCCOCCNC(=O)CC[C@H](NC(=O)CCCCCCCCCCCCCCCCC(=O)O)C(=O)O)NC(=O)[C@H](CCCCN)NC(=O)[C@H](CC(=O)O)NC(=O)[C@H](CC(C)C)NC(=O)[C@](C)(CC(C)C)NC(=O)[C@H](CCC(N)=O)NC(=O)[C@H](CO)NC(=O)[C@H](Cc1ccccc1)NC(=O)[C@H](CC(=O)O)NC(=O)[C@H](CO)NC(=O)[C@@H](NC(=O)[C@H](Cc1ccccc1)NC(=O)[C@@H](NC(=O)CNC(=O)[C@H](CCC(N)=O)NC(=O)C(C)(C)NC(=O)[C@@H](N)Cc1ccc(O)cc1)[C@@H](C)O)[C@@H](C)O)C(=O)N[C@@H](CCC(=O)O)C(=O)N[C@@H](Cc1ccc(O)cc1)C(=O)N[C@@H](CC(C)C)C(=O)N[C@@H](CC(C)C)C(=O)N[C@@H](CCC(=O)O)C(=O)NC(C)(C)C(=O)NCC(=O)N1CCC[C@H]1C(=O)N[C@@H](CO)C(=O)N[C@@H](CO)C(=O)NCC(=O)N[C@@H](C)C(=O)N1CCC[C@H]1C(=O)N1CCC[C@H]1C(=O)N1CCC[C@H]1C(=O)N[C@@H](CO)C(=O)NCC(=O)N[C@@H](CO)C(N)=O [Example 151] | 55 | – | – | – | – | – | – | – | – | – | – | – | – | EC50 (hGLP-1R [1]): 1.6 nM; EC50 (hGIPR [2]): 14.9 nM; EC50 (hGIPR [3]): 0.0784 nM; AUC [4]: 0.0886 µM·h; level at time molar at 10 min [4]: 69 nM; level at time molar at 20 min [4]: 95 nM; level at time molar at 40 min [4]: 115 nM; level at time molar at 1 h [4]: 124 nM; EC50 (hGLP-1R [5]): 384 nM; EC50 (hGcgR): 3.5 nM; EC50 (human GLP1-R): 77.8 nM; EC50 (human GcgR): 1420 nM
2 | H-Y[Aib]QGTFTSDYSI[αMeL]LDKQAAK([εLys-εLys-γGlu-C20 diacid])QFVEWLLA[Aib]GPSSGEPPPSEG-NH2 [Example 329] | 91.1 | 0.926 | 42.6 | 0.207 | 6.11 | 74.5 | 0.322 | 12.6 | 204 | 3.47 | 34 | 842 | – | –
3 | Y[Aib]QGTFTSDFSK[αMeL]LDKK([AEEA-γGlu-C20 diacid])AQ[Aib]AFIEYLLAGGPSSGEPPPSGE-NH2 [Example 2] | 66.8 | 1.65 | 75.5 | 0.207 | > 10000 | 12.3 | 0.143 | 12.1 | 631 | 4.29 | 49.5 | 1630 | 77.90 +/− 1.90**** % | –
4 | H-Y[Aib]QGTFTSDYSI[αMeL]LDKK([AEEA-γGlu-C20 diacid])AQRAFIEYLLEGGPSSGEPPPSEG-NH2 [Example 289] | 86.5 | 0.449 | 105 | 0.382 | 5.96 | 47.5 | 0.0645 | 22.4 | 139 | 5.02 | 10.9 | 1750 | 82.32 ± 1.25 % | Body weight (%) ([8]; 10 nmol/kg SC QD, 16 days): 60.94 ± 1.87 %
5 | H-Y[Aib]QGT[αMePhe(2-F)]TSD[Phe(4-CN)]SILLDKQAQK([AEEA-AEEA-γGlu-C20 diacid])AFIEYLLEGGPSSGEPPPSEG-NH2 [Example 321] | 92.8 | 0.798 | 13 | 0.0912 | 8.78 | 90.1 | 0.137 | 26.2 | 110 | 4.49 | 27.1 | 836 | 87.14 +/− 0.59*** % | –
6 | Y[Aib]QGTFTSDFSQ[αMeL]LDKK([AEEA-γGlu-C18 diacid])AQ[αMe4Pal]AFIEYLIE[Aib]GESSGAPPPSGS-NH2 [Example 232] | 45.5 | – | – | – | – | – | – | – | – | – | – | – | – | EC50 (hGLP-1R [1]): 0.819 nM; EC50 (hGIPR [2]): 24.6 nM; EC50 (hGIPR [3]): 0.102 nM; AUC [4]: 0.202 µM·h; level at time molar at 10 min [4]: 186 nM; level at time molar at 20 min [4]: 235 nM; level at time molar at 40 min [4]: 255 nM; level at time molar at 1 h [4]: 256 nM; EC50 (hGLP-1R [5]): 226 nM; EC50 (hGcgR): 2.42 nM; EC50 (human GLP1-R): 44.7 nM; EC50 (human GcgR): 482 nM
7 | H-Y[Aib]QGT[αMePhe(2-F)]TSD[4Pal][αMeS]I[αMeL]LD[Orn]K([AEEA-γGlu-C18 diacid])AQ[Aib][Orn]FI[dE][αMeY]LIEGGPSSGEPPPSEG-NH2 [Example 401] | – | – | 1.71 | – | – | – | – | – | 12 | – | – | 111 | – | EC50 (hGLP-1R [1]; read-out: Relative cAMP EC50, hGLP-1R): 0.213 nM; Body weight (%) ([8]; 10 nmol/kg SC QD, 15 days): 71.54 ± 3.32 %; EC50 (hGIPR [3]; read-out: Relative cAMP EC50, hGIPR): 0.0183 nM; CL/F (in vivo): 16.3 mL/min/kg; half-life (in vivo): 6.6 h; EC50 (hGcgR; read-out: Relative cAMP EC50, hGcgR): 1.99 nM
